Biological target: T1, human capsaicin receptor (Homo sapiens, UniProt Q8NER1)
T1 construct: pBK-CMV expression construct encoding the full length human capsaicin receptor; expressed in transfected cells
Assay: Calcium mobilization assay, determination of antagonist activity (Example 6)
Type: cell-based
Details: Table II; determined as described in Example 6 (antagonist activity); "*" = 1 micromolar or less
Summary of the method: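 HEK293 clonal lines stably expressing full-length human capsaicin receptor, loaded with Fluo-3 AM in KRH buffer pH 7.4, 1–2 h at 37 °C. Compounds (1–5 μM final) preincubated 0.5–6 h at room temperature, then capsaicin at its EC50 added. FLIPR/Fluoroskan calcium signal; IC50 as 50% decrease of capsaicin response.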

T1 sequence (Q8NER1 whole entry): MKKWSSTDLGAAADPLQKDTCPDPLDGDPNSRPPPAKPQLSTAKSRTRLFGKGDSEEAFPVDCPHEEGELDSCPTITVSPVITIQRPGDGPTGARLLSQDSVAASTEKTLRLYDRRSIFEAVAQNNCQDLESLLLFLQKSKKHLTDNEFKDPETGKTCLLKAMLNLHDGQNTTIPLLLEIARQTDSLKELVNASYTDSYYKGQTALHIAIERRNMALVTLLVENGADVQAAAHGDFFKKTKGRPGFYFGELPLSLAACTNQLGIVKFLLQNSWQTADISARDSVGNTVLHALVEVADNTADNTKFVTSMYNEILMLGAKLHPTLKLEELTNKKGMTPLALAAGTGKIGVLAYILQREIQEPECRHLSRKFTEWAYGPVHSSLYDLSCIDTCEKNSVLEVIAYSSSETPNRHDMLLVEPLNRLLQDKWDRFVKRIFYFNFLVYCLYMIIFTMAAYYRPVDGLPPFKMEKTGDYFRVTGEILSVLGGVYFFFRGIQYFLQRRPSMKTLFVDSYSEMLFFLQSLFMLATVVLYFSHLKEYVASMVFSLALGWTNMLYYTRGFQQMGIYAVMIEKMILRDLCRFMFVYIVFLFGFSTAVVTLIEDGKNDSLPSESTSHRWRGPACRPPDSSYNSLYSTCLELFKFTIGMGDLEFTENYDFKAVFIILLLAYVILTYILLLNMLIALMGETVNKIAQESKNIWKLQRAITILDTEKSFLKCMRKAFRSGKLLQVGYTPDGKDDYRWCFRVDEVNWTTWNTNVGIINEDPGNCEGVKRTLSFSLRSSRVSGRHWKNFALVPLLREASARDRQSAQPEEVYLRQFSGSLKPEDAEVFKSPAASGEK

Row | SMILES | IC50 [µM]
1 | CCCN1CCN(c2nc(-c3cncc(Cl)c3)cc(N3CCN(c4ncccc4Cl)C[C@H]3C)n2)CC1 [Example 838, 4-(5-chloropyridin-3-yl)-6-[(2R)-4-(3-chloropyridin-2-yl)-2-methylpiperazin-1-yl]-2-(4-propylpiperazin-1-yl)pyrimidine] | ≤ 1
2 | COC[C@@H]1CCCN1c1nc(-c2ccc(F)cc2)cc(N2CCN(c3ncccc3Cl)C[C@H]2C)n1 [Example 843, 4-[(2R)-4-(3-chloropyridin-2-yl)-2-methylpiperazin-1-yl]-6-(4-fluorophenyl)-2-[(2S)-2-(methoxymethyl)pyrrolidin-1-yl]pyrimidine] | ≤ 1
3 | C[C@@H]1CN(c2ncccc2Cl)CCN1c1cc(-c2ccc(F)cc2)nc(N2CCCCC2)n1 [Example 844, 4-[(2R)-4-(3-chloropyridin-2-yl)-2-methylpiperazin-1-yl]-6-(4-fluorophenyl)-2-piperidin-1-ylpyrimidine] | ≤ 1
4 | C[C@@H]1CN(c2ncccc2Cl)CCN1c1cc(-c2ccc(F)cc2)nc(N2CCOCC2)n1 [Example 845, 4-[4-[(2R)-4-(3-chloropyridin-2-yl)-2-methylpiperazin-1-yl]-6-(4-fluorophenyl)pyrimidin-2-yl]morpholine] | ≤ 1
5 | CC(=O)c1nc(-c2ccc(F)c(C(C)=O)c2)cc(N2CCN(c3ncccc3C(F)(F)F)CC2)n1 [Example 846, 1-(4-(3-acetyl-4-fluorophenyl)-6-{4-[3-(trifluoromethyl)pyridin-2-yl]piperazin-1-yl}pyrimidin-2-yl)ethanone] | ≤ 1
6 | C[C@@H]1CN(c2ncccc2Cl)CCN1c1cc(-c2ccc(C#N)cc2)nc(S(C)(=O)=O)n1 [Example 847, 4-[6-[(2R)-4-(3-chloropyridin-2-yl)-2-methylpiperazin-1-yl]-2-(methylsulfonyi)pyrimidin-4-yl]benzonitrile] | ≤ 1
7 | O=C(O)CCc1cccc(-c2cc(N3CCN(c4ncccc4C(F)(F)F)CC3)nc(N3CCOCC3)n2)c1 [Example 848, 3-(3-(2-morpholin-4-yl-6-{4-[3-(trifluoromethyl)pyridin-2-yl]piperazin-1-yl}pyrimidin-4-yl)phenyl]propanoic acid] | ≤ 1
8 | O=C(O)CCc1ccc(-c2cc(N3CCN(c4ncccc4C(F)(F)F)CC3)nc(N3CCOCC3)n2)cc1 [Example 849, 3-[4-(2-morpholin-4-yl-6-{4-[3-(trifluorormethyl)pyridin-2-yl]piperazin-1-yl}pyrimidin-4-yl)phenyl]propanoic acid] | ≤ 1
9 | OCCCc1cccc(-c2cc(N3CCN(c4ncccc4C(F)(F)F)CC3)nc(N3CCOCC3)n2)c1 [Example 850, 3-[3-(2-morpholin-4-yl-6-{4-[3-(trifluoromethyl)pyridin-2-yl]piperazan-1-yl}pyrimidin-4-yl)phenyi]propan-1-ol] | ≤ 1
10 | CN(C)CCCc1cccc(-c2cc(N3CCN(c4ncccc4C(F)(F)F)CC3)nc(N3CCOCC3)n2)c1 [Example 851, N,N-dimethyl-3-[3-(2-morpholin-4-yl-6-{4-[3-(trifluoromethyl)pyridin-2-yl]piperazin-1-yl}pyrimidin-4-yl)phenyl]propan-1-amine] | ≤ 1
11 | Cc1cccnc1N1CCN(c2cc(-c3ccc(F)c(Cl)c3)nc(N3CCOCC3)n2)[C@H](C)C1 [Example 852, 4-{4-(3-chloro-4-fluorophenyl)-6-[(2R)-2-methyl-4-(3-methylpyridin-2-yl)piperazin-1-yl]pyrimidin-2-yl}morpholine] | ≤ 1
12 | CC1CCCN1c1nc(-c2ccc(F)c(Cl)c2)cc(N2CCN(c3ncccc3Cl)CC2=O)n1 (stereo not shown) [Example 853, 1-[6-(3-chloro-4-fluorophenyl)-2-(2-methylpyrrolidin-1-yl)pyrimidin-4-yl]-4-(3-chloropyridin-2-yl)piperazin-2-one] | ≤ 1
13 | COC[C@@H]1CCCN1c1nc(-c2cncc(Cl)c2)cc(N2CCN(c3ncccc3Cl)C[C@H]2C)n1 [Example 854, 4-(5-chloropyridin-3-yl)-6-[(2R)-4-(3-chloropyridin-2-yl)-2-methylpiperazin-1-yl]-2-[(2S)-2-(methoxymethyl)pyrrolidin-1-yl]pyrimidine] | ≤ 1
14 | CC1CCN1c1nc(-c2cncc(Cl)c2)cc(N2CCN(c3ncccc3Cl)C[C@H]2C)n1 (stereo partly shown) [Example 855, 4-(5-chloropyridin-3-yl)-6-[4-(3-chloropyridin-2-yl)-2-methylpiperazin-1-yl]-2-(2-methylazetidin-1-yl)pyrimidine] | ≤ 1
15 | CC(=O)c1ccc(-c2cc(N3CCN(c4ncccc4Cl)C[C@H]3C)nc(N3CCCC3)n2)cc1 [Example 856, 1-(4-{6-[(2R)-4-(3-chloropyridin-2-yl)-2-methylpiperazin-1-yl]-2-pyrrolidin-1-ylpyrimidin-4-yl)phenyl)ethanone] | ≤ 1
16 | CC(=O)c1ccc(-c2cc(N3CCN(c4ncccc4Cl)C[C@H]3C)nc(N3CCCC3C)n2)cc1 (stereo partly shown) [Example 857, 1-{4-[6-[4-(3-chloropyridin-2-yl)-2-methylpiperazin-1-yl]-2-(2-methylpyrrolidin-1-yl)pyrimidin-4-yl]phenyl}ethanone] | ≤ 1

Row | SMILES | IC50 [µM]
17 | CC(=O)c1ccc(-c2cc(N3CCN(c4ncccc4Cl)C[C@H]3C)nc(N3CCOCC3)n2)cc1 [Example 858, 1-(4-{6-[(2R)-4-(3-chloropyridin-2-yl)-2-methylpiperazin-1-yl]-2-morpholin-4-ylpyrimidin-4-yl}phenyl)ethanone] | ≤ 1
18 | CC1CCCN1c1nc(-c2ccc(C#N)cc2)cc(N2CCN(c3ncccc3Cl)C[C@H]2C)n1 (stereo partly shown) [Example 859, 4-[6-[4-(3-chloropyridin-2-yl)-2-methylpiperazin-1-yl]-2-(2-methylpyrrolidin-1-yl)pyrimidin-4-yl]benzonitrile] | ≤ 1
19 | C[C@@H]1CN(c2ncccc2Cl)CCN1c1cc(-c2ccc(C#N)cc2)nc(N2CCCC2)n1 [Example 860, 4-{6-[(2R)-4-(3-chloropyridin-2-yl)-2-methylpiperazin-1-yl]-2-pyrrolidin-1-ylpyrimidin-4-yl}benzonitrite] | ≤ 1
20 | C[C@@H]1CN(c2ncccc2Cl)CCN1c1cc(-c2ccc(C#N)cc2)nc(N2CCOCC2)n1 [Example 861, 4-{6-[(2R)-4-(3-chloropyridin-2-yl)-2-methylpiperazin-1-yl]-2-morpholin-4-ylpyrimidin-4-yl}benzonitrile] | ≤ 1
21 | CC(=O)c1nc(-c2ccc(F)c(F)c2)cc(N2CCN(c3ncccc3C(F)(F)F)CC2)n1 [Example 862, 1-(4-(3,4-difluorophenyl)-6-{4-[3-(trifluoromethyl)pyridin-2-yl]piperazin-1-yl}pyrimidin-2-yl)ethanone] | ≤ 1
22 | CCCN1CC=C(c2nc(-c3ccc(F)c(Cl)c3)cc(N3CCN(c4ncccc4C(F)(F)F)CC3)n2)CC1 [Example 863, 4-(3-chloro-4-fluorophenyl)-2-(1-propyl-1,2,3,6-tetrahydropyridin-4-yl)-6-{4-[3-(trifluoromethyl)pyridin-2-yl]piperazin-1-yl}pyrimidine] | ≤ 1
23 | Fc1ccc(-c2cc(N3CCN(c4ncccc4C(F)(F)F)CC3)nc(C3=CCNCC3)n2)cc1Cl [Example 864, 4-(3-chloro-4-fluorophenyl)-2-(1,2,3,6-tetrahydropyridin-4-yl)-6-{4-(3-(trifluoromethyl)pyridin-2-yl]piperazin-1-yl}pyrimidine] | ≤ 1
24 | CC1CCCN1c1nc(-c2ccc(-c3ncon3)cc2)cc(N2CCN(c3ncccc3Cl)C[C@H]2C)n1 (stereo partly shown) [Example 865, 4-[4-(3-chloropyridin-2-yl)-2-methylpiperazin-1-yl]-2-(2-methylpyrrolidin-1-yl)-6-[4-(1,2,4-oxadiazol-3-yl)phenyl]pyrimidine] | ≤ 1
25 | C[C@@H]1CN(c2ncccc2Cl)CCN1c1cc(-c2cccc(C#N)c2)nc(N2CCCC2)n1 [Example 868, 3-{6-[(2R)-4-(3-chloropyridin-2-yl)-2-methylpiperazin-1-yl]-2-pyrrolidin-1-ylpyrimidin-4-yl}benzonitrile] | ≤ 1
26 | Fc1ccc(-c2cc(N3CCN(c4ncccc4C(F)(F)F)CC3)nc(C3CCNCC3)n2)cc1Cl [Example 871, 4-(3-chloro-4-fluorophenyl)-2-piperidin-4-yl-6-{4-[3-(trifluoromethyl)pyridin-2-yl]piperazin-1-yl}pyrimidine] | ≤ 1
27 | CCCN1CCC(c2nc(-c3ccc(F)c(Cl)c3)cc(N3CCN(c4ncccc4C(F)(F)F)CC3)n2)CC1 [Example 872, 4-(3-chloro-4-fluorophenyl)-2-(1-propylpiperidin-4-yl)-6-{4-[3-(trifluoromethyl)pyridin-2-yl]piperazin-1-yl}pyrimidine] | ≤ 1
28 | Cc1ccc(C)n1-c1nc(-c2ccc(F)cc2)cc(N2CCN(c3ncccc3Cl)C[C@H]2C)n1 [Example 873, 4-((2R)-4-(3-chloropyridin-2-yl)-2-methylpiperazin-1-yl]-2-(2,5-dimethyl-1H-pyrrol-1-yl)-6-(4-fluorophenyl)pyrimidine] | ≤ 1
29 | Cc1ccc(C)n1-c1nc(-c2ccc(C#N)cc2)cc(N2CCN(c3ncccc3Cl)C[C@H]2C)n1 [Example 874, 4-[6-[(2R)-4-(3-chloropyridin-2-yl)-2-methypiperazin-1-yl]-2-(2,5-dimethyl-1H-pyrrol-1-yl)pyrimidin-4-yl]benzonitrile] | ≤ 1
30 | Cc1ccc(C)n1-c1nc(-c2ccc(F)cc2)cc(N2CCN(c3ncccc3C(F)(F)F)CC2)n1 [Example 875, 2-(2,5-dimethyl-1H-pyrrol-1-yl)-4-(4-fluorophenyl)-6-{4-[3-(trifluoromethyl)pyridin-2-yl]piperazin-1-yl}pyrimidine] | ≤ 1
31 | Cc1ccc(C)n1-c1nc(-c2ccc(C#N)cc2)cc(N2CCN(c3ncccc3C(F)(F)F)CC2)n1 [Example 876, 4-(2-(2,5-dimethyl-1H-pyrrol-1-yl)-6-{4-[3-(trifluoromethyl)pyridin-2-yl]piperazin-1-yl}pyrimidin-4-yl)benzonitrie] | ≤ 1
